# Source: publication PMC9710775, “Bitter taste sensitivity in domestic dogs (Canis familiaris) and its relevance to bitter deterrents of ingestion” (PLOS ONE, 2022)
# Like-named read-outs stand apart in the source and are kept apart here.
# Assays:
# Assay in all cases: calcium imaging (Cal520-AM), HEK293T cells
# Type in all cases: cell-based
# dTas2r5 = molecular target: T1, dTas2r5 (Canis lupus, UniProt Q2ABD6)
# T1 construct: gene TAS2R5; HEK293T-PEAKrapid cells with Galpha16i/o44
# T1 sequence (Q2ABD6 1-295): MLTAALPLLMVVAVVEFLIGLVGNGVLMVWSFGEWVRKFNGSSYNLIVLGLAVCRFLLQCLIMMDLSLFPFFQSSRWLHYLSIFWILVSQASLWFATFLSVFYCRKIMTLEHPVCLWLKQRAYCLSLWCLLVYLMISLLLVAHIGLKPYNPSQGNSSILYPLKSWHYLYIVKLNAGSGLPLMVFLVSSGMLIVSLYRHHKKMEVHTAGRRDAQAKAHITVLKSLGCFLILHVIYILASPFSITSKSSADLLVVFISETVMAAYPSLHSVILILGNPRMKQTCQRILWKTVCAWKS
# Source text: calcium imaging (Cal520-AM), HEK293T cells on dTas2r5
# dTas2r41 = molecular target: T2, dTas2r41 (Canis lupus, UniProt A0A8I3NKU5); settings: agonist; Galpha16i/o44 cells; lowest concentration differing from mock cells; EC50 not determined
# T2 construct: gene TAS2R41; HEK293T-PEAKrapid cells with Galpha16i/o44
# T2 sequence (A0A8I3NKU5 1-308): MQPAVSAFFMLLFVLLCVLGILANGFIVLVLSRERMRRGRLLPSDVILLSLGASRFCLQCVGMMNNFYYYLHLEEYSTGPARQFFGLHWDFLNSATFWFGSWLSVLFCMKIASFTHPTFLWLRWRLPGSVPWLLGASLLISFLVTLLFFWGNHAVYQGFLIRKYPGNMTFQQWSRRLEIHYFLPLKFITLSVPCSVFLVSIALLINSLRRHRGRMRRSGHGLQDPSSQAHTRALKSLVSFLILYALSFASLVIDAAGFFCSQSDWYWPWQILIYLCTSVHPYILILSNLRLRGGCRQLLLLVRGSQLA
# Source text: calcium imaging (Cal520-AM), HEK293T cells on dTas2r41
# dTas2r4 = molecular target: T3, dTas2r4 (Canis lupus, UniProt A0A8I3SCV7)
# T3 construct: gene TAS2R4; HEK293T-PEAKrapid cells with Galpha16i/o44
# T3 sequence (A0A8I3SCV7 1-299): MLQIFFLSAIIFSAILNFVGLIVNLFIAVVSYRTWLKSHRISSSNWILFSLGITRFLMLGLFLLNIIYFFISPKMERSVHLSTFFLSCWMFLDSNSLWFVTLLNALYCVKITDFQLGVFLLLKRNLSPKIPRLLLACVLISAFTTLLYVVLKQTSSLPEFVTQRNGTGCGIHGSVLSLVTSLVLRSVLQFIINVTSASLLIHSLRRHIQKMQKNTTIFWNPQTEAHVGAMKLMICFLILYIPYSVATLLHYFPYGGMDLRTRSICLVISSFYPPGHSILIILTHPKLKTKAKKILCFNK
# Source text: calcium imaging (Cal520-AM), HEK293T cells on dTas2r4
# dTas2r1 = molecular target: T4, dTas2r1 (Canis lupus, UniProt Q2ABE0); settings: agonist; Galpha16i/o44 cells; lowest concentration differing from mock cells; EC50 not determined
# T4 construct: gene TAS2R1; HEK293T-PEAKrapid cells with Galpha16i/o44; gene on dog chromosome 34
# T4 sequence (Q2ABE0 1-297): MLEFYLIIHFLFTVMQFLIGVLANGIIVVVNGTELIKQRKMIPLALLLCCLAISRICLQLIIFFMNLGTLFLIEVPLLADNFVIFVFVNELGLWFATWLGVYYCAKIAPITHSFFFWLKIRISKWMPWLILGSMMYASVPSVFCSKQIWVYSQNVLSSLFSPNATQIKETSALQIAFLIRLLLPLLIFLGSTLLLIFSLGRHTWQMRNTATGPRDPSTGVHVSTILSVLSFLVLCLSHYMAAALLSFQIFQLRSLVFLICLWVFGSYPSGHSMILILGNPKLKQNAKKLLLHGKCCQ
# Source text: calcium imaging (Cal520-AM), HEK293T cells on dTas2r1
# dTas2r10 = molecular target: T5, dTas2r10 (Canis lupus, UniProt Q2ABD4)
# T5 construct: gene TAS2R10; HEK293T-PEAKrapid cells with Galpha16i/o44
# T5 sequence (Q2ABD4 1-322): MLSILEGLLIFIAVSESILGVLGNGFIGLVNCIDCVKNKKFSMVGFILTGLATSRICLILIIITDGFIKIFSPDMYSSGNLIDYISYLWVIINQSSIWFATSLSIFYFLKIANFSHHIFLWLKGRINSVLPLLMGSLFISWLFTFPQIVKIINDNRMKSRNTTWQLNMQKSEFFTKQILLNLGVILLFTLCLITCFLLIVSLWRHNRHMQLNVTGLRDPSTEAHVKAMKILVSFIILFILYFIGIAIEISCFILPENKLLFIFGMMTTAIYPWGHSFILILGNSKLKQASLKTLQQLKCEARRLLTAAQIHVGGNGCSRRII
# Source text: calcium imaging (Cal520-AM), HEK293T cells on dTas2r10
smiles,measurement,setting,value
OC[C@H]1O[C@H](O[C@]2(CCl)O[C@H](CCl)[C@@H](O)[C@@H]2O)[C@H](O)[C@@H](O)[C@H]1Cl [Sucralose],EC50,dTas2r5,42.9 mM
CC[N+](C)(CC)CCOC(=O)C(O)(c1ccccc1)C1CCCCC1 (stereo not drawn) [Oxyphenonium bromide],dTas2r41,dTas2r41,11.11 mM
same,EC50,dTas2r4; read-out: dTas2r4,4.76 mM
CC[N+](CC)(CC(=O)Nc1c(C)cccc1C)Cc1ccccc1 [Denatonium benzoate],EC50,dTas2r4; read-out: dTas2r4,4.35 mM
O=C1NS(=O)(=O)c2cc([N+](=O)[O-])ccc21 [6-Nitrosaccharin],EC50,dTas2r4; read-out: dTas2r4,1.12 mM
same,dTas2r1,dTas2r1,0.041 mM
COc1cccc2c1cc([N+](=O)[O-])c1c(C(=O)O)cc3c(c12)OCO3 [Aristolochic acid I],EC50,dTas2r4,0.19 mM
O=c1cc(-c2ccccc2)oc2ccccc12 [Flavone],dTas2r1,dTas2r1,0.00082 mM
CC(=O)OC(C)(C)/C=C/C(=O)[C@](C)(O)[C@H]1[C@H](O)C[C@@]2(C)[C@@H]3CC=C4[C@@H](C[C@H](O)C(=O)C4(C)C)[C@]3(C)C(=O)C[C@]12C [Cucurbitacin B],EC50,dTas2r10,2400 nM
